Measurements published in ChEMBL document CHEMBL4819045 (Bioorg Med Chem Lett, 2021).

Tests used:
in vitro [1] = details: rat
[2] = PAMPA
in vitro [3] = details: PAMPA
[4] = rat, microsomes

Row | Structure (SMILES) | half-life (in vitro [1]; liver microsomes) [min] | Papp (in vitro [3]) [×10⁻⁶ cm/s] | other results
1 | O=C(Nc1c(Cl)cc([N+](=O)[O-])cc1Cl)c1cc(Cl)ccc1O | 20 |  | 
2 | COc1ccc(Cl)cc1C(=O)Nc1ccc([N+](=O)[O-])cc1Cl | 27 |  | permeability [2]: 1007 10^-6 cm/s
3 | O=C(Nc1ncc([N+](=O)[O-])s1)c1cc(Cl)ccc1O | 3 | 37 | 
4 | O=C(Nc1ccc([N+](=O)[O-])cc1)c1cc(Cl)ccc1O |  |  | Stabilty [4]: 22 min; permeability [2]: 127.1 10^-6 cm/s
5 | O=C(Nc1ccc(Cl)cc1)c1cc(Cl)ccc1O | 14 | 297 | 
6 | O=C(Nc1ccc(C(F)(F)F)cc1)c1cc(Cl)ccc1O | > 30 | < 22.3 | 
7 | Nc1ccc(NC(=O)c2cc(Cl)ccc2O)c(Cl)c1 | 30 | 152 | 
8 | Cc1ccc(O)c(C(=O)Nc2ccc([N+](=O)[O-])cc2Cl)c1 | 19.5 | 134 | 
9 | O=C(Nc1ccc(F)cc1)c1cc(Cl)ccc1O | 18.4 |  | permeability [2]: 390.8 10^-6 cm/s
10 | COc1ccc(NC(=O)c2cc(Cl)ccc2O)cc1 | 3.3 | 81 | 
11 | O=C(Nc1ccc(C(F)(F)F)cc1Cl)c1cc(Cl)ccc1O | > 30 |  | 
12 | O=C(Nc1ccc(F)cc1F)c1cc(Cl)ccc1O | 18 |  | 
13 | O=C(Nc1c(F)cccc1F)c1cc(Cl)ccc1O | > 30 | 32 | 
14 | O=C(Nc1ccc(F)c(Cl)c1)c1cc(Cl)ccc1O | 11 |  | 
15 | O=C(Nc1ccccc1C(F)(F)F)c1cc(Cl)ccc1O | 15 | 26 | 
16 | O=C(Nc1ccc([N+](=O)[O-])cc1Cl)c1cc(Cl)ccc1OC1CCNCC1 | > 30 | 517 | 
17 | NCCOc1ccc(Cl)cc1C(=O)Nc1ccc([N+](=O)[O-])cc1Cl | > 30 |  | permeability [2]: 1023 10^-6 cm/s
18 | O=C(Nc1ccccc1[N+](=O)[O-])c1cc(Cl)ccc1O |  | 153 | 
19 | CC(=O)Nc1ccc(NC(=O)c2cc(Cl)ccc2O)c(Cl)c1 | > 30 | 87 | 
20 | Cc1ccc(NC(=O)c2cc(Cl)ccc2O)cc1 | 1.6 | 21 | 
21 | O=C(Nc1ccc([N+](=O)[O-])cc1Cl)c1ccc2ccccc2c1O | 16.6 | 90.2 | 
22 | O=C(Nc1ccc(C(F)(F)F)cc1)c1cc(Br)ccc1O | > 30 |  | 
23 | O=C(Nc1ccccc1Cl)c1cc(Cl)ccc1O | 19 |  | permeability [2]: 118 10^-6 cm/s

Row | Structure (SMILES) | half-life (in vitro [1]; liver microsomes) [min] | Papp (in vitro [3]) [×10⁻⁶ cm/s] | other results
24 | O=C(Nc1ccc(Cl)cc1Cl)c1cc(Cl)ccc1O | > 30 | < 22.4 | 
25 | O=C(Nc1c(Cl)cccc1Cl)c1cc(Cl)ccc1O | 24 | 73 | 
26 | O=C(Nc1ccc(F)cc1Cl)c1cc(Cl)ccc1O | 19.3 | 50.5 | 
27 | N#Cc1ccc(NC(=O)c2cc(Cl)ccc2O)c(Cl)c1 | > 30 | 5.1 | 
28 | O=C(Nc1ccc([N+](=O)[O-])c(Cl)c1)c1cc(Cl)ccc1O | 3.8 | 68 | 
29 | O=C(Nc1ccncc1Cl)c1cc(Cl)ccc1O | > 30 | 31 | 
30 | COc1cc([N+](=O)[O-])ccc1NC(=O)c1cc(Cl)ccc1O | > 30 |  | 
31 | O=C(Nc1ccc([N+](=O)[O-])cc1Cl)c1c(O)ccc2ccccc12 | 14.4 | 356 | 
32 | CS(=O)(=O)Nc1ccc(Br)cc1C(=O)Nc1ccc([N+](=O)[O-])cc1Cl | > 30 | 85.1 | 
33 | CC(C)c1cnc(NC(=O)c2cc(Cl)ccc2O)s1 | 2 | 117 | 
34 | COc1ccc(Cl)c(NC(=O)c2cc(Cl)ccc2O)c1 | 5.4 | 34 | 
35 | N#Cc1ccc(NC(=O)c2ccc3ccccc3c2O)c(Cl)c1 | 27 | 111 | 
36 | CN1CCC(NC(=O)c2cc(Cl)ccc2O)CC1 | 1.8 | 212 | 
37 | CC(=O)c1ccc(O)c(C(=O)Nc2ccc([N+](=O)[O-])cc2Cl)c1 | > 30 | 33.1 | 
38 | COc1cccc(NC(=O)c2cc(Cl)ccc2O)c1 | 4 | 43 | 
39 | COc1cc([N+](=O)[O-])ccc1NC(=O)c1cc(Br)ccc1O | > 30 |  | 
40 | O=C(Nc1ccc([N+](=O)[O-])c2ccccc12)c1cc(Cl)ccc1O | 10.7 | 141 | 
41 | O=C(Nc1ccc(C(F)(F)F)c(Cl)c1)c1cc(Br)ccc1O | > 30 | 23.2 | 
42 | CC(=O)Nc1ccccc1C(=O)Nc1ccc([N+](=O)[O-])cc1Cl |  | 431 | 
43 | N#Cc1ccc(NC(=O)c2cc(-c3ccc(F)cc3F)ccc2O)c(Cl)c1 | > 30 |  | 
44 | CN(C)C(=O)c1cccc(NC(=O)c2cc(Cl)ccc2O)c1 | 26 | 5 | 
45 | O=C(Nc1ccc([N+](=O)[O-])cc1Cl)c1cc(Cl)ccc1NS(=O)(=O)c1ccccc1 | > 30 |  | permeability [2]: 2250 10^-6 cm/s
46 | O=C(Nc1ccc([N+](=O)[O-])cc1Cl)c1cnc2ccccc2c1O | 18 | 499 | 

Row | Structure (SMILES) | half-life (in vitro [1]; liver microsomes) [min] | Papp (in vitro [3]) [×10⁻⁶ cm/s] | other results
47 | O=C(Nc1ccc([N+](=O)[O-])cc1Cl)c1cc(-c2ccc(F)cc2F)ccc1O | > 30 | < 23.7 | 
48 | Nc1cccc(Cl)c1C(=O)Nc1ccc([N+](=O)[O-])cc1Cl | 2.2 | 450 | 
49 | O=C(Nc1ccc([N+](=O)[O-])c(Cl)c1)c1cc(Br)ccc1O | 20.3 |  | 
50 | N#Cc1ccc(NC(=O)c2cccc3cc[nH]c23)c(Cl)c1 | 15 | 553 | 
51 | NS(=O)(=O)c1ccc(NC(=O)c2cc(Cl)ccc2O)cc1 | > 30 | < 1 | 
52 | O=C(Nc1c(Cl)cc(F)cc1Cl)c1cc(Cl)ccc1O | 13 | 25 | 
53 | Nc1ccc(Cl)cc1C(=O)Nc1ccc([N+](=O)[O-])cc1Cl | 8.7 | 671 | 
54 | O=C(Nc1ccc([N+](=O)[O-])cc1Cl)c1cc([N+](=O)[O-])ccc1O | > 30 | 30.3 | 
55 | O=C(Nc1ccc2cc([N+](=O)[O-])ccc2c1)c1cc(Cl)ccc1O | > 30 | 447 | 
56 | O=C(Nc1ccc([N+](=O)[O-])cc1Cl)c1c(O)cccc1O | 26.2 |  | 
57 | O=C(Nc1ccc(C(F)(F)F)cc1Cl)c1ccc2ccccc2c1O | > 30 |  | 
58 | O=C(Nc1ccc(C(F)(F)F)c(F)c1)c1cc(Br)ccc1O | > 30 |  | 
59 | O=C(Nc1ccc([N+](=O)[O-])cc1Cl)c1ccc(Cl)cc1O | 21.2 |  | 
60 | O=C(Nc1ccc(C(F)(F)F)cc1Cl)c1cc(-c2ccc(F)cc2F)ccc1O | > 30 |  | 
61 | COc1ccc(C(=O)Nc2ccc([N+](=O)[O-])cc2Cl)c(O)c1 | > 30 | < 3 | 
62 | Cc1cccc(NC(=O)c2cc(Cl)ccc2O)c1C | 9.4 | 48 | 
63 | O=C(Nc1ccc([N+](=O)[O-])cc1Cl)c1cccc2cc[nH]c12 | > 30 |  | permeability [2]: 1763 10^-6 cm/s
64 | COc1ccc(O)c(C(=O)Nc2ccc([N+](=O)[O-])cc2Cl)c1 | 17.8 | 67.1 | 
65 | O=C(Nc1ccc(C(F)(F)F)cc1Cl)c1cc(Br)ccc1O | > 30 |  | 
66 | O=C(Nc1ccc([N+](=O)[O-])cc1Cl)c1cc(Br)ccc1O | > 30 | 67.1 | 
67 | O=C(Nc1ccc([N+](=O)[O-])cc1Cl)c1cc(Cl)ccc1O [NICLOSAMIDE] |  | < 1 | half-life (in vitro [1]; microsomes): > 30 min
